Assay results: PubChem BioAssay (NCI)
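Compound exposure: 48 hours, 5 concentrations, 96-well plates. TGI marks complete inhibition of growth.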 Where a SMILES comes first, the peptide text is derived from it. [ ]: non-standard residue; d: D form. The star is where a group is joined. ξ: configuration not given here. NMeF = CN[CH](Cc1ccccc1)C(=O)O; ξNMe2Val = CC(C)C(C(=O)*)N(C)C; NMeV = CN[CH](C(=O)O)C(C)C; ξNMeV = CNC(C(=O)O)C(C)C; Boc = CC(C)(C)OC(=O)*; OBn = c1ccc(CO*)cc1; OtBu = CC(C)(C)O*

How the values were obtained:
Assay in all cases: inhibition of tumour cell growth, NCI panel, 48 h
SK-MEL-5 melanoma = test system: SK-MEL-5 melanoma
ACHN renal = test system: ACHN renal
CAKI-1 renal = test system: CAKI-1 renal
NCI-H23 lung = test system: NCI-H23 lung
SNB-75 CNS = test system: SNB-75 CNS
LOX IMVI melanoma = test system: LOX IMVI melanoma
A498 renal = test system: A498 renal
HCT-15 colon = test system: HCT-15 colon
NCI/ADR-RES ovarian = test system: NCI/ADR-RES ovarian
MDA-MB-231 breast = test system: MDA-MB-231 breast

SMILES | TGI (SK-MEL-5 melanoma) [µM] | TGI (ACHN renal) [µM] | TGI (CAKI-1 renal) [µM] | TGI (NCI-H23 lung) [µM] | TGI (SNB-75 CNS) [µM] | TGI (LOX IMVI melanoma) [µM] | TGI (A498 renal) [µM] | TGI (HCT-15 colon) [µM] | TGI (NCI/ADR-RES ovarian) [µM] | TGI (MDA-MB-231 breast) [µM]
CC(C)C(C(=O)N(C)[C@H](C(=O)N1CCC[C@H]1C(=O)N(C)[C@@H](Cc1ccccc1)C(=O)OCc1ccccc1)C(C)C)N(C)C(=O)[C@@H](NC(=O)OC(C)(C)C)C(C)C (stereo not given in full) (Boc-V[ξNMeV][NMeV]P[NMeF]-OBn) | 15.5 | > 100 | > 31.6 | > 100 | > 100 | > 31.6 | > 31.6 | > 31.6 | – | –
CCSc1nc(N/N=C/c2cccs2)c2cnn(CO)c2n1 | 12.9 | 22.6 | 13.7 | 17.3 | 28.7 | – | 9.53 | 15.7 | 15.9 | 54.8
O=C1Nc2ccc(Br)cc2/C1=N/N1C(=O)C(=O)N(C2CCCCC2)C1=S | 16.7 | 16.7 | 12.3 | 20.3 | – | 15.7 | 13.9 | 10.4 | 13.5 | 25.5
O=C1Nc2ccc(Cl)c(I)c2C1=O | 34.9 | 30.7 | 37.9 | 37.6 | 50.8 | 35.1 | – | 43.7 | – | –
O=C(O)c1nn(-c2ccccc2)nc1-c1nn(-c2ccccc2)nc1C(=O)O | > 100 | > 100 | > 100 | > 100 | – | > 100 | – | > 100 | > 100 | > 100
CC(=O)OCC1OC(N=[N+]=[N-])C(OC(C)=O)C(OC(C)=O)C1OC1OC(COC(C)=O)C(OC(C)=O)C(OC(C)=O)C1OC(C)=O (stereo not given) | > 100 | > 100 | > 100 | > 100 | 60.8 | > 100 | > 100 | > 100 | – | –
CN1C(=O)C23CCCC2CC1(c1ccccc1)S3 (stereo not given) | > 100 | > 100 | > 100 | > 100 | – | > 100 | > 100 | > 100 | > 100 | > 100
CSC(C1c2ccccc2N(C)c2[nH]c(=O)n(C)c(=O)c21)S(=O)(=O)c1ccc(C)cc1 (stereo not given) | > 100 | – | > 100 | > 100 | > 100 | > 100 | > 100 | > 100 | – | –
Brc1ccc(-c2cc3c(cc2C2SCCS2)OCO3)cc1 | > 100 | > 100 | – | > 100 | 39.9 | > 100 | 93.3 | > 100 | – | –
COc1ccc(NC(=O)C(=O)Cc2ccc([N+](=O)[O-])c([N+](=O)[O-])c2CC(=O)C(=O)Nc2ccc(OC)cc2OC)c(OC)c1 | – | > 100 | > 100 | > 100 | > 100 | > 100 | > 100 | > 100 | – | –
N#COc1ccc(Oc2ccc(OC#N)cc2)cc1 | > 100 | > 100 | > 100 | > 100 | > 100 | 33.9 | > 100 | > 100 | – | –
CC(C)C(C(=O)N(C)C(Cc1ccccc1)C(=O)N(C)C(C(=O)N(C)C(C(=O)N1CCCC1C(=O)OC(C)(C)C)C(C)C)C(C)C)N(C)C (stereo not given) (ξNMe2Val-[NMeF][NMeV][NMeV]P-OtBu; configuration not given here) | 38.8 | > 100 | – | > 100 | – | 55.5 | – | > 100 | – | –
CCCCCCCCCCCCOC1C(COCCN2CCCCC2)OC2OC(C)(C)OC21 (stereo not given) | 2.93 | 4.69 | 3.28 | 6.06 | – | 3.01 | 29.3 | 3.2 | 14.4 | 3.43
CCNC(=S)NNC(=O)c1ccccc1Nc1ccccc1C(=O)NNC(=S)NCC | > 100 | > 100 | – | > 100 | > 100 | > 100 | – | > 100 | > 100 | > 100
COc1cc(S(=O)(=O)Nc2ccc(-c3csc(N4C(=O)CSC4c4ccccc4O)n3)cc2)ccc1Cl (stereo not given) | > 100 | > 100 | > 100 | > 100 | 92.2 | > 100 | – | > 100 | > 100 | –
CN(C)CCCn1c(Cn2nc3ccccc3n2)nc2cc(C(F)(F)F)ccc21 | 30.2 | > 100 | > 100 | > 100 | – | 34.6 | 41.7 | > 100 | > 100 | > 100
CC[C@]12C=CCN3CC[C@@]4(c5cc(Br)c(OC)cc5N(C)[C@H]4[C@@](O)(C(=O)NC(Cc4c[nH]c5ccccc45)C(=O)OC)[C@@H]1O)[C@@H]32 (stereo not given in full) | 75.8 | > 100 | > 100 | > 100 | > 100 | 90.9 | – | > 100 | > 100 | > 100
